Experiments:
Format in all cases: physicochemical
[1] = DVS (dynamic vapor sorption) hygroscopicity testing
From the text: According to the description of hygroscopicity characteristics and the definition of hygroscopic weight gain in "General Rule 9103, Guidelines for Hygroscopicity Trials for Pharmaceuticals" in the Chinese Pharmacopoeia, Volume IV, 2015 Edition: • deliquescent: sufficient water is absorbed to form a liquid; • extremely hygroscopic: the hygroscopic weight gain is not less than 15%; • hygroscopic: the hygroscopic weight gain is less than 15% but not less than 2%; • slightly hygroscopic: the hygroscopic weight gain is less than 2% but not less than 0.2%; • nonhygroscopic or practically nonhygroscopic: the hygroscopic weight gain is less than 0.2%.
DVS refers to dynamic vapor sorption: The analysis was performed using SMS DVS Advantage; at 25 °C, the humidity was changed as follows: 50%-95%-0%-95%-50%, in steps of 10% (5% for the last step) (specific humidity ranges are shown in corresponding patterns, and those listed here were used in most cases); the criterion was dm/dt being not greater than 0.002%.

[2] = Influencing factor stability study; settings: for physical and chemical stability: light exposure (4500 Lux), high temperature (40 °C and 60 °C), high humidity (RH 75% and RH 92.5%), 30 days
Method: Samples of the crystal forms D, E, and H were spread in open containers and left to stand under light exposure (4500 Lux), high temperature (40 °C and 60 °C), and high humidity (RH 75% and RH 92.5%) conditions for 1 month to investigate their stability.

[3] = Long-term/accelerated stability; settings: for physical and chemical stability: long-term/accelerated conditions
Method: Samples of the crystal forms D, E, and H were left to stand under 25 °C/60% RH and 40 °C/75% RH conditions to investigate their stability: Table 30.

[4] = accelerated experimental conditions, 70% RH
[5] = normal storage conditions, 25 °C and 60% RH

SMILES: C=CC(=O)N1[C@@H]2CC[C@H]1C[C@@H](Oc1ccc3ncnc(Nc4ccc(Oc5ccn6ncnc6c5)c(C)c4F)c3c1)C2 [Crystal form D, 1-(endo-3-((4-((4-([1,2,4]Triazolo[1,5-a]pyridin-7-yloxy)-2-fluoro-3-methylphenyl)amino)quinazolin-6-yl)oxy)-8-azabicyclo[3.2.1]octan-8-yl)prop-2-en-1-one]
- hygroscopic weight gain [1, 4]: about 3.23%
- crystal form re-identified after DVS testing [1]: the crystal form did not change
- hygroscopic weight gain ([1]; extreme conditions, 90% RH): about 3.52%
- hygroscopic weight gain [1, 5]: about 3.07%
- Color and appearance ([2]; 40 °C, 1 month): White powder
- Crystal form ([2]; 40 °C, 1 month): No change
- Purity (%) ([2]; 40 °C, 1 month): 99.0%
- Color and appearance ([2]; 40 °C, 7 days): White powder
- Crystal form ([2]; 40 °C, 7 days): No change
- Color and appearance ([2]; 40 °C, 13 days): White powder
- Crystal form ([2]; 40 °C, 13 days): No change
- Purity (%) ([2]; 40 °C, 13 days): 99.4%
- Color and appearance ([2]; 60 °C, 1 month): White powder
- Crystal form ([2]; 60 °C, 1 month): No change
- Purity (%) ([2]; 60 °C, 1 month): 99.2%
- Color and appearance ([2]; 60 °C, 7 days): White powder
- Crystal form ([2]; 60 °C, 7 days): No change
- Color and appearance ([2]; 60 °C, 13 days): White powder
- Crystal form ([2]; 60 °C, 13 days): No change
- Purity (%) ([2]; 60 °C, 13 days): 99.4%
- Color and appearance ([2]; 75% RH, 1 month): White powder
- Crystal form ([2]; 75% RH, 1 month): No change
- Color and appearance ([2]; 75% RH, 13 days): White powder
- Crystal form ([2]; 75% RH, 13 days): No change
- Color and appearance ([2]; 92.5% RH, 1 month): White powder
- Crystal form ([2]; 92.5% RH, 1 month): No change
- Color and appearance ([2]; 92.5% RH, 13 days): White powder
- Crystal form ([2]; 92.5% RH, 13 days): No change
- Color and appearance ([2]; 4500 Lux, 1 month): White powder
- Crystal form ([2]; 4500 Lux, 1 month): No change
- Purity (%) ([2]; 4500 Lux, 1 month): 99.2%
- Color and appearance ([2]; 4500 Lux, 7 days): White powder
- Crystal form ([2]; 4500 Lux, 7 days): No change
- Purity (%) ([2]; 4500 Lux, 7 days): 99.4%
- Color and appearance ([2]; 4500 Lux, 13 days): White powder
- Crystal form ([2]; 4500 Lux, 13 days): No change
- Purity (%) ([2]; 4500 Lux, 13 days): 99.3%
- Color and appearance ([2]; Initial, 0): White powder
- Crystal form ([2]; Initial, 0): Crystal form D
- physical and chemical stability [2]: Conclusion: Standing under light exposure (4500 Lux), high temperature (40 °C and 60 °C), and high humidity (RH 75% and RH 92.5%) conditions for 30 days, the crystal form D exhibited good physical and chemical stability.
- Color and appearance ([3]; 25 °C/60% RH, 1 month): White powder
- Crystal form ([3]; 25 °C/60% RH, 1 month): No change
- Color and appearance ([3]; 25 °C/60% RH, 2 months): White powder
- Crystal form ([3]; 25 °C/60% RH, 2 months): No change
- Color and appearance ([3]; 25 °C/60% RH, 3 months): White powder
- Crystal form ([3]; 25 °C/60% RH, 3 months): No change
- Color and appearance ([3]; 25 °C/60% RH, 6 months): White powder
- Crystal form ([3]; 25 °C/60% RH, 6 months): No change
- Color and appearance ([3]; 25 °C/60% RH, 14 days): White powder
- Crystal form ([3]; 25 °C/60% RH, 14 days): No change
- Color and appearance ([3]; 40 °C/75% RH, 1 month): White powder
- Crystal form ([3]; 40 °C/75% RH, 1 month): No change
- Color and appearance ([3]; 40 °C/75% RH, 2 months): White powder
- Crystal form ([3]; 40 °C/75% RH, 2 months): No change
- Color and appearance ([3]; 40 °C/75% RH, 3 months): White powder
- Crystal form ([3]; 40 °C/75% RH, 3 months): No change
- Color and appearance ([3]; 40 °C/75% RH, 6 months): White powder
- Crystal form ([3]; 40 °C/75% RH, 6 months): No change
- Color and appearance ([3]; 40 °C/75% RH, 14 days): White powder
- Crystal form ([3]; 40 °C/75% RH, 14 days): No change
- Color and appearance ([3]; Initial, 0): White powder
- Crystal form ([3]; Initial, 0): Crystal form D
- physical and chemical stability [3]: Conclusion: Under long-term/accelerated conditions, the crystal form D exhibited good physical and chemical stability.

SMILES: C=CC(=O)N1[C@@H]2CC[C@H]1C[C@@H](Oc1ccc3ncnc(Nc4ccc(Oc5ccn6ncnc6c5)c(C)c4F)c3c1)C2 [Crystal form E, 1-(endo-3-((4-((4-([1,2,4]Triazolo[1,5-a]pyridin-7-yloxy)-2-fluoro-3-methylphenyl)amino)quinazolin-6-yl)oxy)-8-azabicyclo[3.2.1]octan-8-yl)prop-2-en-1-one]
- hygroscopic weight gain [1, 4]: about 0.15%
- crystal form re-identified after DVS testing [1]: the crystal form did not change
- hygroscopic weight gain ([1]; extreme conditions, 90% RH): about 0.25%
- hygroscopic weight gain [1, 5]: about 0.11%
- Color and appearance ([2]; 40 °C, 1 month): White powder
- Crystal form ([2]; 40 °C, 1 month): No change
- Purity (%) ([2]; 40 °C, 1 month): 99.3%
- Color and appearance ([2]; 40 °C, 7 days): White powder
- Crystal form ([2]; 40 °C, 7 days): No change
- Color and appearance ([2]; 40 °C, 14 days): White powder
- Crystal form ([2]; 40 °C, 14 days): No change
- Color and appearance ([2]; 60 °C, 1 month): White powder
- Crystal form ([2]; 60 °C, 1 month): No change
- Color and appearance ([2]; 60 °C, 7 days): White powder
- Crystal form ([2]; 60 °C, 7 days): No change
- Color and appearance ([2]; 60 °C, 14 days): White powder
- Crystal form ([2]; 60 °C, 14 days): No change
- Color and appearance ([2]; 75% RH, 1 month): White powder
- Crystal form ([2]; 75% RH, 1 month): No change
- Color and appearance ([2]; 75% RH, 7 days): White powder
- Crystal form ([2]; 75% RH, 7 days): No change
- Color and appearance ([2]; 75% RH, 14 days): White powder
- Crystal form ([2]; 75% RH, 14 days): No change
- Color and appearance ([2]; 92.5% RH, 1 month): White powder
- Crystal form ([2]; 92.5% RH, 1 month): No change
- Color and appearance ([2]; 92.5% RH, 7 days): White powder
- Crystal form ([2]; 92.5% RH, 7 days): No change
- Color and appearance ([2]; 92.5% RH, 14 days): White powder
- Crystal form ([2]; 92.5% RH, 14 days): No change
- Color and appearance ([2]; 4500 Lux, 1 month): White powder
- Crystal form ([2]; 4500 Lux, 1 month): No change
- Purity (%) ([2]; 4500 Lux, 1 month): 99.4%
- Color and appearance ([2]; 4500 Lux, 7 days): White powder
- Crystal form ([2]; 4500 Lux, 7 days): No change
- Color and appearance ([2]; 4500 Lux, 14 days): White powder
- Crystal form ([2]; 4500 Lux, 14 days): No change
- Color and appearance ([2]; Initial, 0): White powder
- Crystal form ([2]; Initial, 0): Crystal form E
- physical and chemical stability [2]: Conclusion: Standing under light exposure (4500 Lux), high temperature (40 °C and 60 °C), and high humidity (RH 75% and RH 92.5%) conditions for 30 days, the crystal form E exhibited good physical and chemical stability.
- Color and appearance ([3]; 25 °C/60% RH, 1 month): White powder
- Crystal form ([3]; 25 °C/60% RH, 1 month): No change
- Color and appearance ([3]; 25 °C/60% RH, 2 months): White powder
- Crystal form ([3]; 25 °C/60% RH, 2 months): No change
- Color and appearance ([3]; 25 °C/60% RH, 3 months): White powder
- Crystal form ([3]; 25 °C/60% RH, 3 months): No change
- Color and appearance ([3]; 25 °C/60% RH, 6 months): White powder
- Crystal form ([3]; 25 °C/60% RH, 6 months): No change
- Color and appearance ([3]; 25 °C/60% RH, 14 days): White powder
- Crystal form ([3]; 25 °C/60% RH, 14 days): No change
- Color and appearance ([3]; 40 °C/75% RH, 1 month): White powder
- Crystal form ([3]; 40 °C/75% RH, 1 month): No change
- Color and appearance ([3]; 40 °C/75% RH, 2 months): White powder
- Crystal form ([3]; 40 °C/75% RH, 2 months): No change
- Color and appearance ([3]; 40 °C/75% RH, 3 months): White powder
- Crystal form ([3]; 40 °C/75% RH, 3 months): No change
- Color and appearance ([3]; 40 °C/75% RH, 6 months): White powder
- Crystal form ([3]; 40 °C/75% RH, 6 months): No change
- Color and appearance ([3]; 40 °C/75% RH, 14 days): White powder
- Crystal form ([3]; 40 °C/75% RH, 14 days): No change
- Color and appearance ([3]; Initial, 0): White powder
- Crystal form ([3]; Initial, 0): Crystal form E
- physical and chemical stability [3]: Conclusion: Under long-term/accelerated conditions, the crystal form E exhibited good physical and chemical stability.

SMILES: C=CC(=O)N1[C@@H]2CC[C@H]1C[C@@H](Oc1ccc3ncnc(Nc4ccc(Oc5ccn6ncnc6c5)c(C)c4F)c3c1)C2 [Crystal form J, 1-(endo-3-((4-((4-([1,2,4]Triazolo[1,5-a]pyridin-7-yloxy)-2-fluoro-3-methylphenyl)amino)quinazolin-6-yl)oxy)-8-azabicyclo[3.2.1]octan-8-yl)prop-2-en-1-one]
- hygroscopic weight gain [1, 4]: about 2.64%
- hygroscopic weight gain ([1]; extreme conditions, 90% RH): about 8.10%
- hygroscopic weight gain [1, 5]: about 2.44%

Reference: patent EP4786474A1, “CRYSTALLINE FORM OF QUINAZOLINE DERIVATIVE AND PREPARATION METHOD THEREFOR” (Jiangsu Hengrui Pharmaceuticals Co., Ltd., priority 2023, dated 2025)
